Our source for the IC50 values is patent US8232279B2, “Pyrazolopyrimidine derivatives having biological activity on serotonin receptor 5-HT2c” (Korea Institute of Science and Technology, priority 2009, dated 2012).

Where two headings read alike, the source gives them in different places. A value given as a limit tells only on which side of the number the result lay.

The assay deals with T1, human recombinant 5-HT2C receptor (Homo sapiens, UniProt P28335).
T1 construct: expressed in transfected cells
T1 sequence (P28335 33-458): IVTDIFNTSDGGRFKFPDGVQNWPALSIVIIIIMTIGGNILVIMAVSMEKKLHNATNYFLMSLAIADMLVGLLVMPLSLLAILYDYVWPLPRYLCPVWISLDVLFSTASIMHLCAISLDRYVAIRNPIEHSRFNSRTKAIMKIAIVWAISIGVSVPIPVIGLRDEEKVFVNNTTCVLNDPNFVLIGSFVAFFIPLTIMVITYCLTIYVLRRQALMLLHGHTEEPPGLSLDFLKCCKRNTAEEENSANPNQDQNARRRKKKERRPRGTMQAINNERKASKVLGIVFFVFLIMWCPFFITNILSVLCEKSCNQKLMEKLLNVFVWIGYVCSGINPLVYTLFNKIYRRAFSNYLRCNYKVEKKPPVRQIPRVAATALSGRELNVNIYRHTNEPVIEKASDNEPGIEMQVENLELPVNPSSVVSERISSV
Nature of the assay: [3H]Mesulergine binding to serotonin 5-HT2C receptor. To be noted: read-out: Affinity for 5-HT2C receptor (IC50). On the procedure:
[^3H]Mesulergine Binding to Serotonin 5-HT2C Receptor
Frozen membranes from stable CHO—K1 cell line expressing the human recombinant 5-HT2C receptor were used. For the binding assay, [^3H]Mesulergine (1 nM), receptor membrane (4 ug/well) and test compounds were added into 50 mM Tris-HCl (pH 7.7) buffer containing 0.1% ascorbic acid and 10 uM pargyline. Nonspecific binding was determined using 0.5 uM mianserin. The incubations were performed for 30 min at 37° C., and these were terminated by rapid filtration through Whatman GF/C glass fiber filters presoaked in 1% BSA. Then, the resultant was washed with cold 50 mM Tris-HCl buffer. The filter was covered with MeltiLex, sealed in a sample bag followed by drying in the microwave oven, and counted by MicroBeta Plus (Wallac, Finland). Nonspecific binding was determined in the presence of mianserin (0.5 uM). Competition binding studies were carried out with 7-8 varied concentrations of the test compounds run in duplicate tubes, and isotherms from three assays were calculated by computerized nonlinear regression analysis (GraphPad Prism Program, San Diego, USA) to yield IC50 values (Table 1).

Setting [1] is: [3H]Mesulergine (1 nM), membranes from CHO-K1 cell line expressing human recombinant 5-HT2C receptor, 30 min at 37° C.

For orientation: IC50 means the concentration at which inhibition is half-maximal. As to `COCCCNc1nc(Nc2ccc(F)cc2)c2cnn(C)c2n1` [Comp. 12, N^4-(4-fluorophenyl)-N^6-(3-methoxypropyl)-1-methyl-1H-pyrazolo[3,4-d]pyrimidine-4,6-diamine], the IC50 under setting [1] was more than 1000 nM.

Consider `CCN(CC)c1nc(Nc2cccc(OC)c2)c2cnn(C)c2n1` [Comp. 31, N^6,N^6-diethyl-N^4-(3-methoxyphenyl)-1-methyl-1H-pyrazolo[3,4-d]pyrimidine-4,6-diamine], for which the IC50 under setting [1] came to 5420 nM.

For the compound `CN1CCN(c2nc(Nc3ccc(F)cc3)c3cnn(C)c3n2)CC1` [Comp. 35, N-(4-fluorophenyl)-1-methyl-6-(4-methylpiperazine-1-yl)-1H-pyrazolo[3,4-d]pyrimidine-4-amine], the IC50 under setting [1] amounted to 20.1 nM.

With `Cn1ncc2c(Nc3ccc(F)cc3)nc(N3CCN(c4ccccc4)CC3)nc21` [Comp. 28, N-(4-fluorophenyl)-1-methyl-6-(4-phenylpiperazine-1-yl)-1H-pyrazolo[3,4-d]pyrimidine-4-amine], the IC50 under setting [1] came to 416 nM.

For the compound `COCCNc1nc(Nc2ccc(F)cc2)c2cnn(C)c2n1` [Comp. 11, N^4-(4-fluorophenyl)-N^6-(2-methoxyethyl)-1-methyl-1H-pyrazolo[3,4-d]pyrimidine-4,6-diamine], the half-inhibitory concentration (IC50) under setting [1] was more than 1000 nM.

With `Cn1ncc2c(Nc3ccc(F)cc3)nc(N3CCOCC3)nc21` [Comp. 21, N-(4-fluorophenyl)-1-methyl-6-morpholino-1H-pyrazolo[3,4-d]pyrimidine-4-amine], the IC50 under setting [1] turned out to be 2070 nM.

For `Cc1ccc(CNc2nc(Nc3ccc(F)cc3)c3cnn(C)c3n2)cc1` [Comp. 17, N^4-(4-fluorophenyl)-1-methyl-N^6-(4-methylbenzyl)-1H-pyrazolo[3,4-d]pyrimidine-4,6-diamine], the IC50 under setting [1] is 5830 nM.

Turning to `CNc1nc(Nc2ccc(F)cc2)c2cnn(C)c2n1` [Comp. 8, N^4-(4-fluorophenyl)-N^6,1-dimethyl-1H-pyrazolo[3,4-d]pyrimidine-4,6-diamine], under setting [1], the IC50 came to 7790 nM.

Turning to `Cn1ncc2c(Nc3ccc(F)cc3)nc(NCc3ccccc3)nc21` [Comp. 16, N^6-benzyl-N4-(4-fluorophenyl)-1-methyl-1H-pyrazolo[3,4-d]pyrimidine-4,6-diamine], the IC50 under setting [1] worked out at 2590 nM.

Regarding `CCN(CC)c1nc(Nc2ccc(C)c(C)c2)c2cnn(C)c2n1` [Comp. 4, N^4-(3,4-dimethylphenyl)-N^6,N^6-diethyl-1-methyl-1H-pyrazolo[3,4-d]pyrimidine-4,6-diamine], under setting [1], the IC50 was 8490 nM.

As for `CC1CCN(c2nc(Nc3ccc(F)cc3)c3cnn(C)c3n2)CC1` [Comp. 24, N-(4-fluorophenyl)-1-methyl-6-(4-methylpiperidine-1-yl)-1H-pyrazolo[3,4-d]pyrimidine-4-amine], under setting [1], the half-inhibitory concentration (IC50) came out at 1500 nM.

Consider `CN1CCN(c2nc(Nc3ccc(Cl)cc3)c3cnn(C)c3n2)CC1` [Comp. 6, N^6-(4-chlorophenyl)-1-methyl-6-(4-methylpiperazine-1-yl)-1H-pyrazolo[3,4-d]pyrimidine-4-amine], for which the half-maximal inhibitory concentration (IC50) under setting [1] was 29.4 nM.

Take `Cn1ncc2c(Nc3ccc(F)cc3)nc(N3CCCCC3)nc21` [Comp. 22, N-(4-fluorophenyl)-1-methyl-6-(piperidine-1-yl)-1H-pyrazolo[3,4-d]pyrimidine-4-amine]: the IC50 under setting [1] came out at 1300 nM.

For the compound `CCN(CC)c1nc(Nc2ccc(F)cc2)c2cnn(C)c2n1` [Comp. 20, N^6,N^6-diethyl-N^4-(4-fluorophenyl)-1-methyl-1H-pyrazolo[3,4-d]pyrimidine-4,6-diamine], the IC50 under setting [1] was found to be 3310 nM.

As to `CCN(CC)c1nc(Nc2ccc(Cl)cc2)c2cnn(C)c2n1` [Comp. 5, N^4-(4-chlorophenyl)-N^6,N^6-diethyl-1-methyl-1H-pyrazolo[3,4-d]pyrimidine-4,6-diamine], the IC50 under setting [1] came to 991 nM.

Consider `Cn1ncc2c(Nc3ccc(F)cc3)nc(NC3CCCCC3)nc21` [Comp. 14, N^6-cyclohexyl-N^4-(4-fluorophenyl)-1-methyl-1H-pyrazolo[3,4-d]pyrimidine-4,6-diamine], for which the IC50 under setting [1] turned out to be 5710 nM.

On to `C=CCNc1nc(Nc2ccc(F)cc2)c2cnn(C)c2n1` [Comp. 13, N^6-allyl-N^4-(4-fluorophenyl)-1-methyl-1H-pyrazolo[3,4-d]pyrimidine-4,6-diamine], for which the IC50 under setting [1] was more than 1000 nM.

Regarding `Cn1ncc2c(Nc3ccc(F)cc3)nc(N3CCN(c4ccc(F)cc4)CC3)nc21` [Comp. 29, N-(4-fluorophenyl)-6-(4-(4-fluorophenyl)piperazine-1-yl)-1-methyl-1H-pyrazolo[3,4-d]pyrimidine-4-amine], the IC50 under setting [1] came to 148 nM.

As for `COc1cccc(Nc2nc(N3CCN(C)CC3)nc3c2cnn3C)c1` [Comp. 32, N-(3-methoxyphenyl)-1-methyl-6-(4-methylpiperazine-1-yl)-1H-pyrazolo[3,4-d]pyrimidine-4-amine], the IC50 under setting [1] is 7.8 nM.

Consider `Cn1ncc2c(Nc3ccc(F)cc3)nc(NCCN3CCOCC3)nc21` [Comp. 18, N^4-(4-fluorophenyl)-1-methyl-N^6-(2-morpholinoethyl)-1H-pyrazolo[3,4-d]pyrimidine-4,6-diamine], for which, under setting [1], the concentration for half-maximal inhibition (IC50) is more than 1000 nM.

For the compound `Cn1ncc2c(Nc3ccc(F)cc3)nc(N3CCN(CCO)CC3)nc21` [Comp. 26, 2-(4-(4-(4-fluorophenylamino)-1-methyl-1H-pyrazolo[3,4-d]pyrimidine-6-yl)piperazine-1-yl)ethanol], the IC50 under setting [1] amounted to 494 nM.

Take `CCN(CC)c1nc(Nc2ccccc2C)c2cnn(C)c2n1` [Comp. 7, N^6,N^6-diethyl-1-methyl-N^4-o-tolyl-1H-pyrazolo[3,4-d]pyrimidine-4,6-diamine]: under setting [1], the IC50 came to 242 nM.

On to `CN1CCN(c2nc(Nc3ccc(F)cc3)c3cnn(C)c3n2)CC1` [Comp. 25, N-(4-fluorophenyl)-1-methyl-6-(4-methylpiperazine-1-yl)-1H-pyrazolo[3,4-d]pyrimidine-4-amine], for which the IC50 under setting [1] amounted to 85.8 nM.

As for `Cn1ncc2c(Nc3ccc(F)cc3)nc(NCCCO)nc21` [Comp. 10, 3-(4-(4-fluorophenylamino)-1-methyl-1H-pyrazolo[3,4-d]pyrimidine-6-ylamino)propane-1-ol], the IC50 under setting [1] was more than 1000 nM.

On to `COc1ccc(Nc2nc(N3CCN(c4ccc(F)cc4)CC3)nc3c2cnn3C)cc1` [Comp. 34, 6-(4-(4-fluorophenyl)piperazine-1-yl)-N-(4-methoxyphenyl)-1-methyl-1H-pyrazolo[3,4-d]pyrimidine-4-amine], for which the IC50 turned out to be 1180 nM.

Regarding `CC1CC(C)CN(c2nc(Nc3ccc(F)cc3)c3cnn(C)c3n2)C1` (stereo not drawn) [Comp. 23, 6-(3,5-dimethylpiperidine-1-yl)-N-(4-fluorophenyl)-1-methyl-1H-pyrazolo[3,4-d]pyrimidine-4-amine], the IC50 under setting [1] turned out to be 3820 nM.

Take `COc1ccccc1N1CCN(c2nc(Nc3ccc(F)cc3)c3cnn(C)c3n2)CC1` [Comp. 30, N-(4-fluorophenyl)-6-(4-(2-methoxyphenyl)piperazine-1-yl)-1-methyl-1H-pyrazolo[3,4-d]pyrimidine-4-amine]: under setting [1], the IC50 was 1720 nM.

Take `CCNc1nc(Nc2ccc(F)cc2)c2cnn(C)c2n1` [Comp. 9, N^6-ethyl-N^4-(4-fluorophenyl)-1-methyl-1H-pyrazolo[3,4-d]pyrimidine-4,6-diamine]: the half-inhibitory concentration (IC50) under setting [1] was more than 1000 nM.

With `Cn1ncc2c(Nc3ccc(F)cc3)nc(NC3CCCC3)nc21` [Comp. 15, N^6-cyclopentyl-N^4-(4-fluorophenyl)-1-methyl-1H-pyrazolo[3,4-d]pyrimidine-4,6-diamine], the IC50 under setting [1] is more than 1000 nM.

Take `COc1cccc(Nc2nc(N3CCN(c4ccc(F)cc4)CC3)nc3c2cnn3C)c1` [Comp. 33, 6-(4-(4-fluorophenyl)piperazine-1-yl)-N-(3-methoxyphenyl)-1-methyl-1H-pyrazolo[3,4-d]pyrimidine-4-amine]: the IC50 under setting [1] turned out to be 1080 nM.

Consider `CN1CCN(c2nc(Nc3ccccc3)c3cnn(C)c3n2)CC1` [Comp. 3, 1-methyl-6-(4-methylpiperazine-1-yl)-N-phenyl-1H-pyrazolo[3,4-d]pyrimidine-4-amine], for which, under setting [1], the IC50 came out at 86.9 nM.

For `CN(C)c1nc(Nc2ccc(F)cc2)c2cnn(C)c2n1` [Comp. 19, N^4-(4-fluorophenyl)-N^6,N^6,1-trimethyl-1H-pyrazolo[3,4-d]pyrimidine-4,6-diamine], the IC50 under setting [1] turned out to be 4030 nM.

Consider `Cn1ncc2c(Nc3ccc(F)cc3)nc(N3CCN(Cc4ccccc4)CC3)nc21` [Comp. 27, 6-(4-benzylpiperazine-1-yl)-N-(4-fluorophenyl)-1-methyl-1H-pyrazolo[3,4-d]pyrimidine-4-amine], for which the IC50 under setting [1] stood at 836 nM.
